Experimental data taken from PMC7261408 (Molecular pharmaceutics, 2017).
Entries after “also recorded” stand apart in the source; their conditions may differ. Where two headings read alike, the source gives them in different places.

Columns and labels:
[1] = system: YU2 pseudotyped HIV virus; settings: combination 2C:Nt, cited from earlier work
[2] = system: HIV-1 BaL virions (gp120); assay: HIV-1 virion capture assay with gp120-specific mAbs; format: binding; settings: peptide 50 μM; sCD4–2D-treated HIV-1 BaL; captured p24 Gag by AlphaLISA
TZM-bl cells [3] = settings: effects on host cell line TZM-bl; cited from earlier work
[4] = system: amphotropic pseudotyped murine leukemia virus; assay: Neutralization of amphotropic pseudotyped murine leukemia virus; format: cell-based
HIV-1 NL4–3 (X4) = settings: read-out: IC50 NL4–3 (X4); cited from earlier work
HIV-1 HxB2 (X4) = settings: read-out: IC50 HxB2 (X4); cited from earlier work
[5] = Peptide stability in PBS and cell growth medium with serum; format: in vitro ADME; settings: PBS and cell growth medium (DMEM) complemented with fetal bovine serum, 37 °C, 5% CO2, 24 h monitoring; LC–MS
HIV-1 BaL26 (R5) = settings: read-out: IC50 BaL26 (R5); TZM-bl cells; cited from earlier work
[6] = system: HIV-1 YU2 pseudotyped viral particles; settings: read-out: IC50 YU2 (R5); TZM-bl cells; cited from earlier work
[7] = system: vesicular stomatitis virus; format: cell-based
TZM-bl cells [8] = assay: MTT cell proliferation; settings: for TI (toxicity index; ratio of cytotoxicity to neutralization IC50 values): MTT assay; for cellular cytotoxicity (in words): MTT cell proliferation assay; for cytotoxic at concentrations above: cellular cytotoxicity assays
[9] = system: HIV-1 YU2 pseudotyped viral particles; settings: neutralization assay

With “Ac-CSSHFPYSQYQFWK-NH2 [2C, reference compound]” as the substance, how does the “dose reduction index (DRI)” value ([1]; ratio 1:1) read?
Its value is 2.1 ± 0.4.

What about the “dose reduction index (DRI)” value ([1]; ratio 1:2) of the same substance?
Its value is 2.6 ± 0.5.

What about the “dose reduction index (DRI)” value ([1]; ratio 1:5) of the same substance?
The value was 4.9 ± 1.0.

And the “inhibition of virion capture by mAb 19b” value [2]?
The value was “effectively blocked virus capture”.

And the “inhibition of virion capture by mAb 268-D” value [2]?
The value was “effectively blocked virus capture”.

And the “inhibition of virion capture by mAb 48d” value [2]?
Its value is “effectively blocked virus capture; also recorded: to a lesser extent”.

And the “inhibition of virion capture by mAb B4e8 (V3 tip)” value [2]?
Its value is “neither 2C nor 40-2 blocked capture; also recorded: neither inhibited virion capture”.

What about the “inhibition of virion capture by mAb D19 (V3 tip)” value [2] of the same substance?
The value was “neither 2C nor 40-2 blocked capture; also recorded: neither inhibited virion capture”.

And the LC50 (TZM-bl cells [3])?
Its LC50 is 190 µM.

And the “activity toward amphotropic pseudotyped murine leukemia virus (in words)” value [4]?
The value was “inactive”.

And the IC50 (HIV-1 NL4–3 (X4))?
The IC50 was 53 ± 2 µM.

What about the IC50 (HIV-1 HxB2 (X4)) of the same substance?
The IC50 was 54 µM.

What about the “glutathione (GST) adducts detected starting around” value [5] of the same substance?
The value was “around 30 min”.

And the IC50 (HIV-1 BaL26 (R5))?
The IC50 was 65 ± 3 µM.

And the IC50 [6]?
Its IC50 is 28 ± 7 µM.

And the “activity toward vesicular stomatitis virus (in words)” value [7]?
The value was “inactive”.

Which “TI (toxicity index; ratio of cytotoxicity to neutralization IC50 values)” value (TZM-bl cells [8]) does the source give for Ac-CSSHFPYSQFQFWK-NH2 [16-4] here?
The value was over 100 µM.

What about the “cellular cytotoxicity (in words)” value (TZM-bl cells [8]) of the same substance?
Its value is “cytotoxic”.

Which “inhibition of virion capture by mAb 19b” value [2] does the source give for Ac-YSSYFPFSQYQWWK-NH2 [40-2] here?
Its value is “effectively blocked virus capture”.

What about the “inhibition of virion capture by mAb 268-D” value [2] of the same substance?
The value was “effectively blocked virus capture”.

And the “inhibition of virion capture by mAb 48d” value [2]?
Its value is “effectively blocked virus capture; also recorded: to a lesser extent”.

What about the “inhibition of virion capture by mAb B4e8 (V3 tip)” value [2] of the same substance?
The value was “neither 2C nor 40-2 blocked capture; also recorded: neither inhibited virion capture”.

And the “inhibition of virion capture by mAb D19 (V3 tip)” value [2]?
The value was “neither 2C nor 40-2 blocked capture; also recorded: neither inhibited virion capture”.

And the “glutathione (GST) adduct formation (in words)” value [5]?
Its value is “never detected GST adducts”.

What about the “TI (toxicity index; ratio of cytotoxicity to neutralization IC50 values)” value (TZM-bl cells [8]) of the same substance?
Its value is over 250 µM.

And the “cellular cytotoxicity (in words)” value (TZM-bl cells [8])?
Its value is “nontoxic at relevant concentrations”.

For Ac-CSSYFPWSQYQWWK-NH2 [30-2], which “TI (toxicity index; ratio of cytotoxicity to neutralization IC50 values)” value (TZM-bl cells [8]) is on record?
Its value is over 500 µM.

What about the “cellular cytotoxicity (in words)” value (TZM-bl cells [8]) of the same substance?
The value was “nontoxic at relevant concentrations”.

And the LC50 (TZM-bl cells [8]; effects on host cell line TZM-bl, standard deviations averaged 20%, Non-toxic = nontoxic at 500 μM)?
The LC50 was “Non-toxic^f”.

With Ac-CSSYFPFSQYQWWK-NH2 [20-2] as the substance, how does the “glutathione (GST) adducts detected starting around” value [5] read?
The value was “around 30 min”.

And the “TI (toxicity index; ratio of cytotoxicity to neutralization IC50 values)” value (TZM-bl cells [8])?
Its value is over 250 µM.

What about the “cellular cytotoxicity (in words)” value (TZM-bl cells [8]) of the same substance?
Its value is “nontoxic at relevant concentrations”.

With Ac-CSSHFPFSQFQFWK-NH2 [16-5] as the substance, how does the “TI (toxicity index; ratio of cytotoxicity to neutralization IC50 values)” value (TZM-bl cells [8]) read?
Its value is over 50 µM.

What about the “cellular cytotoxicity (in words)” value (TZM-bl cells [8]) of the same substance?
The value was “cytotoxic”.

For Ac-SSHFPVSQYQFWK-NH2 [12-3], which “activity against R5-tropic strain YU2 (in words)” value [9] is on record?
The value was “modest gains in potency”.

What about the “TI (toxicity index; ratio of cytotoxicity to neutralization IC50 values)” value (TZM-bl cells [8]) of the same substance?
Its value is over 5 µM.

And the “cellular cytotoxicity (in words)” value (TZM-bl cells [8])?
Its value is “cytotoxic”.

With Ac-CSSHFPWSQVQFWK-NH2 [16-7] as the substance, how does the “TI (toxicity index; ratio of cytotoxicity to neutralization IC50 values)” value (TZM-bl cells [8]) read?
Its value is over 75 µM.

What about the “cellular cytotoxicity (in words)” value (TZM-bl cells [8]) of the same substance?
Its value is “cytotoxic”.

Which “TI (toxicity index; ratio of cytotoxicity to neutralization IC50 values)” value (TZM-bl cells [8]) does the source give for Ac-CSSHFPFSQYQFWK-NH2 [16-2] here?
Its value is over 63 to 250 µM.

What about the “cytotoxic at concentrations above” value (TZM-bl cells [8]) of the same substance?
Its value is “above 65 μM”.

For Ac-CSSYYPFSQYQWWK-NH2 [20-5], which “cellular cytotoxicity (in words)” value (TZM-bl cells [8]) is on record?
Its value is “nontoxic at relevant concentrations”.

With Ac-SSHFPWSQVQFWK-NH2 [14-6] as the substance, how does the “activity against R5-tropic strain YU2 (in words)” value [9] read?
Its value is “low activity”.

What about the “TI (toxicity index; ratio of cytotoxicity to neutralization IC50 values)” value (TZM-bl cells [8]) of the same substance?
The value was over 200 µM.

For Ac-SSHFPFSQRQFWK-NH2 [14-1], which “TI (toxicity index; ratio of cytotoxicity to neutralization IC50 values)” value (TZM-bl cells [8]) is on record?
Its value is over 500 to 1000 µM.

Which “activity against R5-tropic strain YU2 (in words)” value [9] does the source give for Ac-SSHFPFSQYQFWK-NH2 [12-2] here?
Its value is “modest gains in potency”.

And the “TI (toxicity index; ratio of cytotoxicity to neutralization IC50 values)” value (TZM-bl cells [8])?
Its value is over 500 µM.

Which results are given for Ac-CSSYFPFSQYQFWK-NH2 [18-2]?
TI (toxicity index; ratio of cytotoxicity to neutralization IC50 values) (TZM-bl cells [8]): >63 to 125 µM; cytotoxic at concentrations above (TZM-bl cells [8]): above 65 μM

With Ac-SSHFPFSQVQFWK-NH2 [14-5] as the substance, how does the “activity against R5-tropic strain YU2 (in words)” value [9] read?
Its value is “low activity”.

What about the “TI (toxicity index; ratio of cytotoxicity to neutralization IC50 values)” value (TZM-bl cells [8]) of the same substance?
The value was over 500 µM.

With Ac-SSHFPYSQYQFWK-NH2 [12-1] as the substance, how does the “TI (toxicity index; ratio of cytotoxicity to neutralization IC50 values)” value (TZM-bl cells [8]) read?
The value was over 500 to 1000 µM.

With Ac-CSSHFPFSQVQFWK-NH2 [16-6] as the substance, how does the “TI (toxicity index; ratio of cytotoxicity to neutralization IC50 values)” value (TZM-bl cells [8]) read?
The value was over 5 µM.

What about the “cellular cytotoxicity (in words)” value (TZM-bl cells [8]) of the same substance?
Its value is “cytotoxic”.

Which results are given for Ac-SSHFPWSQYQFWK-NH2 [12-4]?
activity against R5-tropic strain YU2 (in words) [9]: modest gains in potency; TI (toxicity index; ratio of cytotoxicity to neutralization IC50 values) (TZM-bl cells [8]): >500 µM

Which “TI (toxicity index; ratio of cytotoxicity to neutralization IC50 values)” value (TZM-bl cells [8]) does the source give for Ac-SSHFPWSQRQFWK-NH2 [14-2] here?
Its value is over 500 to 1000 µM.
